Publication PMC3347530, “Atomic Resolution Crystal Structure of NAD^+-Dependent Formate Dehydrogenase from Bacterium Moraxella sp. C-1” (Acta Naturae, 2009)

Biological target: T1, MorFDH (NAD+-dependent formate dehydrogenase from Moraxella sp. C-1) (Moraxella sp., UniProt O08375)
T1 construct: gene fdh; homodimer; 399 residues located, last two C-terminal residues not seen
T1 sequence (O08375 2-402): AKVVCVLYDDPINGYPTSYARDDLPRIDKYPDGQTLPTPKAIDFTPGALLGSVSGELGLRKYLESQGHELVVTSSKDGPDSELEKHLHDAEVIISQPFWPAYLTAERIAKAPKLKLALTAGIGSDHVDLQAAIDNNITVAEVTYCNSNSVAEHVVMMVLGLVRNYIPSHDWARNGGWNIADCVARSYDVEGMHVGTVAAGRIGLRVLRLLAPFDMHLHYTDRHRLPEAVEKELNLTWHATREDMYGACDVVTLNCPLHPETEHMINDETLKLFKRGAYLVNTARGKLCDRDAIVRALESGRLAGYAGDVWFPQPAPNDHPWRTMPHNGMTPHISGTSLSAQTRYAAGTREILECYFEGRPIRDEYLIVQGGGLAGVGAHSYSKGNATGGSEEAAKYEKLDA
Experiment: X-ray crystal structure, […] A
Assay type: binding
Details: active site, co-crystallised with 5 mM NAD+ and 5 mM sodium azide, protein in pH 7.0 phosphate, reservoir pH 6.5, 20 C

Structure (SMILES)	X-ray crystal structure, 1.1 A (ternary complex with azide)	X-ray crystal structure, 1.1 A (ternary complex with NAD+, inhibitor, transition-state mimic)
NC(=O)c1ccc[n+]([C@@H]2O[C@H](COP(=O)(O)OP(=O)(O)OC[C@H]3O[C@@H](n4cnc5c(N)ncnc54)[C@H](O)[C@@H]3O)[C@@H](O)[C@H]2O)c1 [NAD+]	The NAD ^+ molecule and one azide ion are bound in the active site of the enzyme	
[N-]=[N+]=[N-] [azide ion]		The NAD ^+ molecule and one azide ion are bound in the active site of the enzyme
